The target in assay [1] is T1, S. aureus DNA gyrase (Staphylococcus aureus, UniProt P0A0K8+P20831). Conditions: read-out: IC50 for Gyrase; inhibition of DNA supercoiling, 30 min at 37 °C.
The target of assay [2] is T2, S. aureus topoisomerase IV (Staphylococcus aureus, UniProt P0C1S7+P0C1U9).
T2 construct: purchased Inspiralis
As to the kind of experiment: S. aureus topoisomerase IV decatenation assay. It is filed as biochemical. The procedure: The assay was performed using S. aureus topoisomerase IV […] kit (Inspiralis). Kinetoplast DNA (kDNA) was the substrate for topoisomerase IV.

The test system of a further assay is S. aureus ATCC 6538. As to the kind of experiment: MIC, twofold microdilution, standard strain. As to conditions: Staphylococcus aureus, ATCC6538; 18 h of treatment; read-out: MIC S. aureus ATCC 6538. The format is cell-based. Background: In broth dilution the organism is exposed to a series of concentrations in liquid medium.
In assay [3] the test system is S. epidermidis T 5399 848/19. As to the kind of experiment: MIC, clinical S. epidermidis strain. The format is cell-based. As to conditions: Staphylococcus epidermidis, T5399848/19, quinolone-susceptible, 18 h of treatment.
The test system of assay [4] is S. epidermidis KR 4313 834/19. As to the kind of experiment: MIC, clinical S. epidermidis strain. It is filed as cell-based. As to conditions: Staphylococcus epidermidis, KR4313834/19, quinolone-susceptible, 18 h of treatment.
For assay [5], the target named is T1, S. aureus DNA gyrase. As to the kind of experiment: biochemical.
The test system of another assay is P. aeruginosa ATCC 27853. Put plainly: MIC, twofold microdilution, standard strain. It is filed as cell-based. As to conditions: Pseudomonas aeruginosa, ATCC27853; 18 h of treatment; read-out: MIC P. aeruginosa ATCC 27853.
A further assay has as its system SW620 cells. As to the kind of experiment: MTT assay, SW620. The format is cell-based, human. As to conditions: for IC50: Homo sapiens, SW-620, 72 h, human metastatic colon cancer, 72 h, MTT, mean ± SD; for SI SW620: SI = IC50 for normal cell line (HaCaT)/IC50 cancer cell line. (Formazan colour is commonly taken as a measure of viable cells.)
A further assay relates to M. tuberculosis H37Rv. As to the kind of experiment: MABA (microplate Alamar blue assay) MIC. As to conditions: Mycobacterium tuberculosis, 336 h, 2 weeks of treatment, read-out: MIC M. tuberculosis H37Rv. The format is cell-based. Background: Alamar Blue is a resazurin reagent that responds to reducing activity.
Assay [6] has as its system S. epidermidis T 5253 845/19. Put plainly: MIC, clinical S. epidermidis strain. It is filed as cell-based. Conditions: Staphylococcus epidermidis, T5253845/19, quinolone-resistant, 18 h of treatment.
The test system of a further assay is E. coli ATCC 25922. As to the kind of experiment: MIC, twofold microdilution, standard strain. It is filed as cell-based, Escherichia coli. As to conditions: for MIC: Escherichia coli, read-out: MIC E. coli ATCC 25922.
Assay [7] deals with standard staphylococci (S. aureus, S. epidermidis). As to the kind of experiment: MIC, standard Gram-positive strains as a group. The format is cell-based. Conditions: Staphylococcus aureus; range over standard Gram-positive strains; read-out: MIC against standard staphylococci.
Assay [8] has as its system S. epidermidis KR 4243 829/19. As to the kind of experiment: MIC, clinical S. epidermidis strain. The format is cell-based. Conditions: Staphylococcus epidermidis, KR4243829/19, quinolone-susceptible, 18 h of treatment.
For assay [9], the system named is S. epidermidis ATCC 35984. Put plainly: MIC, twofold microdilution, standard strain. The format is cell-based. Conditions: Staphylococcus epidermidis, ATCC35984; 18 h of treatment; read-out: MIC S. epidermidis ATCC 35984.
The next assay relates to S. aureus NCTC 4163. Put plainly: MIC, twofold microdilution, standard strain. The format is cell-based. Conditions: Staphylococcus aureus, NCTC4163; 18 h of treatment; read-out: MIC S. aureus NCTC 4163.
Assay [10] has as its system S. epidermidis ATCC 12228. As to the kind of experiment: MIC, twofold microdilution, standard strain. It is filed as cell-based. As to conditions: Staphylococcus epidermidis, ATCC12228; 18 h of treatment; read-out: MIC S. epidermidis ATCC 12228.
For assay [11], the system named is M. tuberculosis Spec. 192 (Sensitive to Tuberculostatics). Put plainly: MABA (microplate Alamar blue assay) MIC. It is filed as cell-based. Conditions: Mycobacterium tuberculosis, 336 h, read-out: MIC M. tuberculosis Spec. 192 (Sensitive to Tuberculostatics).
The subject of assay [12] is S. epidermidis KR 4358/2 840/19. As to the kind of experiment: MIC, clinical S. epidermidis strain. The format is cell-based. As to conditions: Staphylococcus epidermidis, KR4358/2840/19; clinical S. epidermidis, quinolone-susceptible, 18 h of treatment; read-out: MIC KR 4358/2 840/19.
In a further assay the test system is PC3 cells. As to the kind of experiment: MTT assay, PC3. The format is cell-based, human. As to conditions: for IC50: human metastatic prostate cancer, 72 h, MTT, mean ± SD; for SI PC3: SI = IC50 for normal cell line (HaCaT)/IC50 cancer cell line.
The subject of a further assay is HaCaT cells. Put plainly: MTT assay, HaCaT normal cells. The format is cell-based. As to conditions: human immortal keratinocyte cell line, 72 h, mean ± SD.
The test system of assay [13] is quinolone-susceptible clinical coagulase-negative staphylococci. As to the kind of experiment: MIC, quinolone-susceptible clinical isolates as a group. It is filed as cell-based. Conditions: Staphylococcus epidermidis; five quinolone-susceptible isolates; read-out: MIC against quinolone-susceptible clinical isolates.
Assay [14] relates to S. epidermidis T 5501 851/19. As to the kind of experiment: MIC, clinical S. epidermidis strain. The format is cell-based. As to conditions: Staphylococcus epidermidis, T5501851/19, read-out: MIC T 5501 851/19, quinolone-susceptible, 18 h of treatment.
A further assay concerns S. aureus ATCC 25923. As to the kind of experiment: MIC, twofold microdilution, standard strain. It is filed as cell-based. As to conditions: Staphylococcus aureus, ATCC25923; 18 h of treatment; read-out: MIC S. aureus ATCC 25923.
Assay [15] relates to S. epidermidis KR 4047 825/19. As to the kind of experiment: MIC, clinical S. epidermidis strain. It is filed as cell-based. Conditions: Staphylococcus epidermidis, KR4047825/19, quinolone-resistant, 18 h of treatment.
Another assay relates to S. aureus ATCC 29213. Put plainly: MIC, twofold microdilution, standard strain. The format is cell-based. Conditions: Staphylococcus aureus, ATCC29213; 18 h of treatment; read-out: MIC S. aureus ATCC 29213.
A further assay relates to M. tuberculosis strains. As to the kind of experiment: MABA MIC, mycobacterial strains as a group. The format is cell-based. As to conditions: Mycobacterium tuberculosis, read-out: MIC antimycobacterial (strain not specified).
The next assay relates to SW480 cells. Put plainly: MTT assay, SW480. It is filed as cell-based, human. As to conditions: for IC50: Homo sapiens, SW480, 72 h, human primary colon cancer, 72 h, MTT, mean ± SD; for SI SW480: SI = IC50 for normal cell line (HaCaT)/IC50 cancer cell line.
Assay [16] deals with SW480, SW620, and PC3 cancer cell lines. Put plainly: MTT assay, cancer cell lines as a group. The format is cell-based, human. Conditions: Homo sapiens, 72 h, all three cancer cell lines (SW480, SW620, PC3), read-out: IC50 against all tested cancer cell lines.
The test system of assay [17] is quinolone-resistant isolates (KR 4047 and T5253). As to the kind of experiment: MIC, quinolone-resistant clinical isolates as a group. It is filed as cell-based. As to conditions: Staphylococcus epidermidis, read-out: MIC against quinolone-resistant clinical isolates.

SMILES strings stand for the structures. Values after ≈ are worked out from the molar mass of the structure shown. Read-outs that look alike come from different tables or passages of the source.

One may read the IC50 as the concentration at which inhibition is half-maximal.

T1 sequence (P20831 whole entry): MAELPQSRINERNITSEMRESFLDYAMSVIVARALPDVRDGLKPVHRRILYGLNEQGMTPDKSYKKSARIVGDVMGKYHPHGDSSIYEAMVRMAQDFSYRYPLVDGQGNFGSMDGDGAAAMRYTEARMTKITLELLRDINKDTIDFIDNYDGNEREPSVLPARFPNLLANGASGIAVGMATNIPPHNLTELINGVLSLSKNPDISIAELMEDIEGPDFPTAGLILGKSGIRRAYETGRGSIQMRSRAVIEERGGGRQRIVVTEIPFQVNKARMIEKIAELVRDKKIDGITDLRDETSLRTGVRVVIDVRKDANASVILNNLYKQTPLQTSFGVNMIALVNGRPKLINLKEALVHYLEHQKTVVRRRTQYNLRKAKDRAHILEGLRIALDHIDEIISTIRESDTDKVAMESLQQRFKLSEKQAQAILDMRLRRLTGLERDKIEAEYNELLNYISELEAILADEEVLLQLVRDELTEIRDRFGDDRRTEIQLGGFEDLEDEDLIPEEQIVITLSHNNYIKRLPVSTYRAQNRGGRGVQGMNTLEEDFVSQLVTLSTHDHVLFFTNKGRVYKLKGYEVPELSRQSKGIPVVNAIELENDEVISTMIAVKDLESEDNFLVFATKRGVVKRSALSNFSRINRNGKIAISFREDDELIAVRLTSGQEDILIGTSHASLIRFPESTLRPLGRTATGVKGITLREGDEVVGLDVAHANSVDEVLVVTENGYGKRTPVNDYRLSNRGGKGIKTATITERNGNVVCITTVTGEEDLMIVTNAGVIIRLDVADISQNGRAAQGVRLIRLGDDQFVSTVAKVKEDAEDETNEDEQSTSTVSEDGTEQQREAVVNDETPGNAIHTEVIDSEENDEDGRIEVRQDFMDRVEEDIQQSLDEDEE
T1 sequence (P0A0K8 whole entry): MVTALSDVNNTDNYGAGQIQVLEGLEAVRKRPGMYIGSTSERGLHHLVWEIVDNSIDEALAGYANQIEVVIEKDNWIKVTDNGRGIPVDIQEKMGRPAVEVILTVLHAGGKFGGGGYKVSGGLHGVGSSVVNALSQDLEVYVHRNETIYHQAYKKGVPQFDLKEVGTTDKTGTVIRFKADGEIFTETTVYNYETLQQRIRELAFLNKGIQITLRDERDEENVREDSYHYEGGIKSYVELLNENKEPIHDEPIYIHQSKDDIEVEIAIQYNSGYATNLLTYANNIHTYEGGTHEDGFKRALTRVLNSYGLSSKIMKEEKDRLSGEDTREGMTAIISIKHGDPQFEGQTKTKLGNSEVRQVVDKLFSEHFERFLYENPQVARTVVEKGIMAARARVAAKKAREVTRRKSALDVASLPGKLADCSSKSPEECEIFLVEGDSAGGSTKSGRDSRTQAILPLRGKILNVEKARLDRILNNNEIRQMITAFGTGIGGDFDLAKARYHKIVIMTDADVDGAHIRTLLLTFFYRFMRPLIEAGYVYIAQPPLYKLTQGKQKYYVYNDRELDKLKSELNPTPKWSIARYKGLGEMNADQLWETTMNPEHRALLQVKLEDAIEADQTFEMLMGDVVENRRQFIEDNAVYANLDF
T2 sequence (P0C1U9 whole entry): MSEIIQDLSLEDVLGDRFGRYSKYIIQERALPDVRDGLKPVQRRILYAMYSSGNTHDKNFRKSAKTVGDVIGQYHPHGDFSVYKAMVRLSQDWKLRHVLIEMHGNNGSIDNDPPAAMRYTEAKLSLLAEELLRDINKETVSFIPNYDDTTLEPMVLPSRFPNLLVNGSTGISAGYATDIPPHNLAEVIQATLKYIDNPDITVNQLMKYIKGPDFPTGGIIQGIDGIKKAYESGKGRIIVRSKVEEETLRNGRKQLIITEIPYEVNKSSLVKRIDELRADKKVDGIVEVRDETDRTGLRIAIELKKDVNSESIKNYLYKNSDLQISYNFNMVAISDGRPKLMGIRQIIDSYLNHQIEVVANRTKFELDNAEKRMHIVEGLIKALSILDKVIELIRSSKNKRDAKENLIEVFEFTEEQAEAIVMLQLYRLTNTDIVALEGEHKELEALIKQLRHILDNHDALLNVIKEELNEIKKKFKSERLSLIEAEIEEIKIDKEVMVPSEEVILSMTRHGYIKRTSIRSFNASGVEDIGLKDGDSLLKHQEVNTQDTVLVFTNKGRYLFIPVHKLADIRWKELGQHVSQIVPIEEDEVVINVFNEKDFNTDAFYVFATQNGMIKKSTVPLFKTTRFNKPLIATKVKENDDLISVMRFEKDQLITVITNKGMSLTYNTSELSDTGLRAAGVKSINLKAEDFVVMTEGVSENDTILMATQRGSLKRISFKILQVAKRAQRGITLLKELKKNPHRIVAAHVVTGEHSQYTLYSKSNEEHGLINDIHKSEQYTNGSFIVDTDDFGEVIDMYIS
T2 sequence (P0C1S7 whole entry): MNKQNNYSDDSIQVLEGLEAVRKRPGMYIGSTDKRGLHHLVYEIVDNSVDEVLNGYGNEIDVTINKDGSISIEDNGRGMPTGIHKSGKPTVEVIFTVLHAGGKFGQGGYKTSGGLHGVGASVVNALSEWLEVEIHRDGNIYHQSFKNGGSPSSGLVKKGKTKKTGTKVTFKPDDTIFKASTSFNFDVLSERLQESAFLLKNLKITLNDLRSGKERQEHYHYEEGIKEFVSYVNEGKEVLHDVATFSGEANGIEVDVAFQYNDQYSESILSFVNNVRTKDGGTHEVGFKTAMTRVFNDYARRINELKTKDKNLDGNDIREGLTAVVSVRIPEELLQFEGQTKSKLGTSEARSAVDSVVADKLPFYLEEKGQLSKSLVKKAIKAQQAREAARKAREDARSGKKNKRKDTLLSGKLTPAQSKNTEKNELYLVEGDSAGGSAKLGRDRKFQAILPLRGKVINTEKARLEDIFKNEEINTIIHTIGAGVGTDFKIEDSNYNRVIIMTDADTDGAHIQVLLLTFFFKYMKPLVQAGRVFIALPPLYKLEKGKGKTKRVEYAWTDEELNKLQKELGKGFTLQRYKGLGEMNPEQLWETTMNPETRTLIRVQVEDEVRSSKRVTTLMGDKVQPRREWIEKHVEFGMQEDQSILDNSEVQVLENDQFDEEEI

Consider `CCC=CCC=CCC=CCC=CCC=CCC=CCCC(=O)N1CCN(c2cc3c(cc2F)c(=O)c(C(=O)O)cn3C2CC2)CC1` [Compound 8], for which the IC50 is above 99.7 µM on S. aureus DNA gyrase [1] and above 99.7 µM in [2] (read-out: IC50 for Topo IV, inhibition of kDNA decatenation, 30 min at 37 °C).

On to `COc1c(N2CC3CCCN(C(C)=O)C3C2)c(F)cc2c(=O)c(C(=O)O)cn(C3CC3)c12` (stereo not shown) [Compound 14m, 7-(1-Acetyl-octahydro-pyrrolo[3,4-b]pyridin-6-yl)-1-cyclopropyl-6-fluoro-8-methoxy-4-oxo-1,4-dihydro-quinoline-3-carboxylic acid], for which the MIC is 0.25 µg/mL (≈ 0.564 µM) in the assay on S. aureus ATCC 6538; 0.5 µg/mL (≈ 1.13 µM) in assay [3]; 0.5 µg/mL (≈ 1.13 µM) in assay [4]; above 512 µg/mL with P. aeruginosa ATCC 27853; 64 µg/mL (≈ 144 µM) with M. tuberculosis H37Rv; 32 µg/mL (≈ 72.2 µM) in [6]. Further, the MIC is 8 µg/mL (≈ 18 µM) with E. coli ATCC 25922 (ATCC25922, 18 h of treatment); 0.25 to 1 µg/mL (≈ 0.564 to 2.25 µM) in assay [7]; 0.5 µg/mL (≈ 1.13 µM) in assay [8]; 0.5 µg/mL (≈ 1.13 µM) in assay [9]; 0.25 µg/mL (≈ 0.564 µM) in the assay on S. aureus NCTC 4163; 0.5 µg/mL (≈ 1.13 µM) in assay [10]. Also, the MIC in assay [11] (2 weeks of treatment) worked out at 64 µg/mL (≈ 144 µM); in assay [12], 0.5 µg/mL (≈ 1.13 µM); in assay [13], 0.5 µg/mL (≈ 1.13 µM); in [14] it was 0.5 µg/mL (≈ 1.13 µM); in the assay on S. aureus ATCC 25923, 0.25 µg/mL (≈ 0.564 µM); in assay [15] it was 32 µg/mL (≈ 72.2 µM). In addition, the MIC with S. aureus ATCC 29213 was 0.5 µg/mL (≈ 1.13 µM); in the assay on M. tuberculosis strains (summary over strains), 64 µg/mL (≈ 144 µM). Further, the IC50 at S. aureus DNA gyrase [5] is 133 µM; with SW620 cells it was 18.4 ± 3.2 µM; in assay [2], 135 µM; with PC3 cells (Homo sapiens, PC-3, 72 h), 12.5 ± 1.6 µM; in the assay with HaCaT cells, 86.5 ± 2.1 µM; in the assay on SW480 cells it was 14.3 ± 3.2 µM. Also, the “SI SW620” value in the assay with SW620 cells is recorded as 4.7. Also, the “MIC E. coli ATCC 25922” value in the assay with E. coli ATCC 25922 (18 h of treatment) was 2 to 16 µg/mL. Moreover, in the assay with PC3 cells, the “SI PC3” value is 6.9. The “SI SW480” value with SW480 cells was 6.0.

With `CCCCCCCC(=O)N1CCCC2CN(c3c(F)cc4c(=O)c(C(=O)O)cn(C5CC5)c4c3OC)CC21` (stereo not shown) [Compound 15m, 1-Cyclopropyl-6-fluoro-8-methoxy-7-(1-octanoyl-octahydro-pyrrolo[3,4-b]pyridin-6-yl)-4-oxo-1,4-dihydro-quinoline-3-carboxylic acid], the MIC with S. aureus ATCC 6538 turned out to be 4 µg/mL (≈ 7.58 µM); in assay [3], 4 µg/mL (≈ 7.58 µM); in assay [4], 8 µg/mL (≈ 15.2 µM); in [17] it was 8 µg/mL (≈ 15.2 µM); with P. aeruginosa ATCC 27853, 512 µg/mL (≈ 970 µM); in the assay with M. tuberculosis H37Rv, 256 µg/mL (≈ 485 µM). Further, the MIC is 8 µg/mL (≈ 15.2 µM) in assay [6]; 128 µg/mL (≈ 243 µM) in the assay on E. coli ATCC 25922 (ATCC25922, 18 h); 4 to 8 µg/mL (≈ 7.58 to 15.2 µM) in assay [7]; 8 µg/mL (≈ 15.2 µM) in [8]; 8 µg/mL (≈ 15.2 µM) in assay [9]; 4 µg/mL (≈ 7.58 µM) with S. aureus NCTC 4163. For the same molecule, the MIC stood at 4 µg/mL (≈ 7.58 µM) in assay [10]; 128 µg/mL (≈ 243 µM) in assay [11]; 8 µg/mL (≈ 15.2 µM) in assay [12]; 8 µg/mL (≈ 15.2 µM) in assay [14]; 4 µg/mL (≈ 7.58 µM) with S. aureus ATCC 25923; 8 µg/mL (≈ 15.2 µM) in assay [15]. Moreover, the values for the MIC with S. aureus ATCC 29213 and in the assay on M. tuberculosis strains were 4 µg/mL (≈ 7.58 µM) and at least 128 µg/mL, respectively. Also, the half-maximal inhibitory concentration (IC50) was below 5 µM in [16]; 4.7 ± 1.5 µM in the assay on SW620 cells; below 5 µM in the assay on PC3 cells (Homo sapiens, PC-3, 72 h); 3.1 ± 0.9 µM with PC3 cells; 87.2 ± 3.6 µM in the assay on HaCaT cells; 3.2 ± 0.8 µM with SW480 cells. Moreover, the “SI SW620” value in the assay with SW620 cells came to 18.6. In addition, the “SI PC3” value in the assay with PC3 cells was 28.1. The “SI SW480” value with SW480 cells is listed as 27.3.

For the origin of these results see PMC9181188 (International Journal of Molecular Sciences, 2022).
